One molecule from article PMC2151622 (The Journal of General Physiology, 2007) can be followed below.

This experiment deals with T1, WT-EAAC1 (Oryctolagus cuniculus, UniProt P31597).
T1 sequence (P31597 1-524): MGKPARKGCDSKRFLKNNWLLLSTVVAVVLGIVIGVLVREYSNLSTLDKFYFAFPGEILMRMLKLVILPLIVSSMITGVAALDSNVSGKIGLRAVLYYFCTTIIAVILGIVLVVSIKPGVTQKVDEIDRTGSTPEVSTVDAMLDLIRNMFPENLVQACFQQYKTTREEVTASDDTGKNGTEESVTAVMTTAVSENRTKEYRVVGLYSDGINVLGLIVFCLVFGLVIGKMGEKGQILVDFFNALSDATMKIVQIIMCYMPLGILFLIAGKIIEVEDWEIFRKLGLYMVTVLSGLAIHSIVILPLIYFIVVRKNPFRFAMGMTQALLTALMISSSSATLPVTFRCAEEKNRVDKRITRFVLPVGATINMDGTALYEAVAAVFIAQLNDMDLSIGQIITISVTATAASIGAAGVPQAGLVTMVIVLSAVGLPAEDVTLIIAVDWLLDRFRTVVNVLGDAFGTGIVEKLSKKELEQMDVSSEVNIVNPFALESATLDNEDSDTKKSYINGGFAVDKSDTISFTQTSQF
It counts as cell-based, rabbit. As to conditions: WT-EAAC1 in HeLa cells; 5 mM unlabeled succinate.

Structures are written as SMILES.

Take `O=C(O)CCC(=O)O` [Succinate, succinate]: the “Inhibition of D-[3H]-aspartate uptake” value is reported as “In contrast to WT”.
